Experimental data from PMC5056396, “Hexokinase I N-terminal based peptide prevents the VDAC1-SOD1 G93A interaction and re-establishes ALS cell viability” (Scientific Reports, 2016).

How the values were obtained:
[1] = system: VDAC1-SOD1 G93A interaction; assay: In vitro VDAC1-SOD1 G93A binding assay after pre-incubation with HK1 or peptide (western blot, densitometry); parameters: species or system human; details: for reduction of SOD1 G93A in VDAC1-bound fraction: 6.25 μM SOD1 G93A, n = 3
Text: It is well known that HKs bind to VDAC1 in physiological conditions. We hypothesized that the available area for interaction with soluble proteins is a limited, exposed portion of the transmembrane pore VDAC1. […] For this reason, we repeated the VDAC1-SOD1 G93A binding assay, adding increasing concentrations of HK1. […] The reduction corresponds to the increase of HK1 in VDAC1-bound fraction, and it is proportional to the HK1 concentrations added in the assay (Fig. 3A).
In order to evaluate the NHK1 ability to interfere with VDAC1-SOD1 G93A interaction, a binding assay was performed. Increasing concentrations of NHK1 were added to immobilized-VDAC1, before SOD1 G93A addition. […] In fact, a 20-fold smaller concentration of peptide was used to obtain a result similar to that obtained by using the whole HK1 in the previous experiment (see Fig. 3A).
Recombinant VDAC1 was immobilized onto Ni-NTA Magnetic Agarose Beads (Qiagen) by exploiting its 6xHis-tag, according with manufacture’s protocol. For each experiment, a large excess of VDAC1 (30 μM) were incubated with 50 μL of beads suspension in Interaction Buffer (IB) (300 mM NaCl, 50 mM NaH2PO4, 20 mM imidazole, pH 8.0) to saturate all sites. Beads were collected using the magnet-based system DynaMag-2 (Life Technologies) and washed twice in Wash Buffer (300 mM NaCl, 50 mM NaH2PO4, 20 mM imidazole, 0.05% Tween-20, pH 6.3) to remove any excess of VDAC1. Beads-immobilized VDAC1 were incubated with 6.25 μM SOD1 WT or G93A, for 1 h at RT, under constant shaking, in 100 μL of IB. The assay was also performed by pre-incubating immobilized-VDAC1 for an extra 1 h with increasing concentration of purified human HK1 (0, 100, 200 μM) or NHK1 peptide (0, 5, 10, 25 μM), before SOD1 G93A addition. Beads were recovered using Dyna-Mag2 system and VDAC1-complexes were eluted from beads using 50 μL of Elution Buffer (300 mM NaCl, 50 mM NaH2PO4, 300 mM imidazole, pH 3.5). Any protein in VDAC1-bound and -unbound fractions was evaluated by western blot. Three independent experiments were performed for each condition tested.

[2] = system: human VDAC1 reconstituted into PLB; assay: VDAC1 channel conductance in planar lipid bilayer (PLB); assay type: biochemical; details: for effect on single channel VDAC1 conductance: +25 mV, 0.2 μM SOD1 proteins or 15 μM peptide; for effect on voltage-dependence of VDAC1, triangular voltage ramps: symmetric 1 M KCl, ramps 0 to ±50 mV
Text: Purified VDAC1 was reconstituted into a planar phospholipid bilayer (PLB) and its channel conductance was monitored before and after addition of SOD1 proteins, on cis or trans side of the membrane. […] Moreover, the effect of SOD1 proteins on the voltage-dependence of VDAC1 was monitored by triangular voltage ramps from 0 to ±50 mV. […] The current linearly follows the voltage applied up to about ±25 mV, where VDAC1 decreases its channel conductance through step-like transitions, remaining in low-conducting states.
Under standard experimental condition (1 M KCl and an applied potential of +25 mV) the VDAC1 channel was mainly in low-conducting closed states. […] The effect of NHK1 on the channel conductance is even more evident by plotting the amplitude values obtained in the current traces as a function of the number of events. While for VDAC1 alone the amplitude values appear as a main peak corresponding to the closed states (Fig. 4B), the presence of NHK1 caused a different distribution of events: an additional, different peak corresponding to the open state was visible, together with the closed states peak (Fig. 4C). […] The effect of NHK1 on the voltage-dependence of VDAC1 was monitored by triangular voltage ramps. […] In this experiment, indeed, VDAC1 completely loose, very precociously (already at ±15 mV applied), its ability to linearly respond to the applied voltage: a continuous switch from open to closed states was observed, especially at positive potentials. […] Upon NHK1 incubation, VDAC1 current transitions at positive voltages are very noisy and pass through different sub-conductance states (Fig. 4F).
Purified VDAC1 was reconstituted into a Planar Lipid Bilayer (PLB) apparatus (Warner Instruments, Hamden, CT, USA), previously described. Bilayers were prepared using asolectin (Sigma) dissolved in decane (Sigma) containing 1% chloroform (Sigma) across a 200 μm hole in a derlin cuvette (Warner Instruments). Experiments were performed in 1 M KCl, 10 mM Hepes, pH 7.0[40][46]. Control experiments using empty membrane and/or detergents were performed to avoid activity in any of the above solutions. Data were acquired using a Bilayer Clamp amplifier (Warner Instruments) at 100 μs/point, filtered at 200 Hz and analyzed offline using Clampfit 10.4 program set (Axon Instruments, Union City, CA, USA). Single channel analysis of VDAC1 was performed in presence or not of 0.2 μM of SOD1 WT or G93A, 15 μM NHK1 or ScNHK1 peptide.

NSC34-SOD1G93A cells = assay: Mitochondrial membrane potential (ΔΨm) by flow cytometry; assay type: cell-based, mouse; details: TMRM
Procedure: To evaluate the NHK1 influence on mitochondrial functionality, mitochondrial membrane potential variation (ΔΨm) was assayed in the presence of NHK1 peptide or HK1. ΔΨm is related to the ATP production by oxidative phosphorylation; therefore, it is considered an indication of good mitochondrial and cellular health. Using mitochondria-targeted fluorescent probes, we estimated in flow cytometry the rate of mitochondrial depolarization. NSC34-SOD1G93A cells shown a high level of depolarized mitochondria compared to NSC34-SOD1WT. […] Similarly to NHK1 peptide, the expression of the whole HK1 reduced the depolarized mitochondria of about 15% (Fig. 7C).
ΔΨm was measured using tetramethyl-rhodamine methyl ester (TMRM) or Rhodamine 123 (RH123) (Molecular Probes) according to the excitation/emission wavelength of the transfection reporter or of the transfected fluorescent protein used. Both probes accumulates in active mitochondria due to their positive charge, whereby the reduction of ΔΨm leads to the release of fluorescent probes. Transfected NSC34-SOD1WT and NSC34-SOD1G93A cells were washed with PBS and incubated for 30 min at 37 °C with Krebs Ringer Buffered Saline supplemented with either 200 nM TMRM or 0.1 μg/mL RH123 and 20 μM Verapamil (as a multi drug-resistant pump inhibitor) (Sigma). Cells were then harvested and immediately analyzed by flow cytometry. Cells were excited by an air-cooled argon 488 nm laser, reading the GFP fluorescence of HK1-GFP or RH123 fluorescence in FL1 log mode; TMRM and mtDsRED used as transfection reporter of NHK1 peptide were read on FL3 log mode. Only viable cells detected by reading the scattering indicated as FSC and SSC, were considered for our analysis. The threshold physiological value of ΔΨm was estimated by using cells exposed to 1 μM of the uncoupling agent FCCP as a negative control. Data reported are representative for three sets of independent experiments, each performed at least in triplicate and based on 20.000 events for each group. Data were statistical analyzed by chi-square test. A p < 0,001 was taken as significant.

Sequence | effect on SOD1 G93A in VDAC1-bound fraction ([1]; scramble control, same assay) | effect on single channel VDAC1 conductance ([2]; 1 M KCl) | effect on voltage-dependence of VDAC1, triangular voltage ramps [2] | partial recovery of physiological ΔΨm (NSC34-SOD1G93A cells; NSC34-SOD1G93A expressing scramble peptide) | reduction of SOD1 G93A in VDAC1-bound fraction ([1]; 10 μM peptide pre-incubated 1 h) | reduction of SOD1 G93A in VDAC1-bound fraction ([1]; 25 μM peptide pre-incubated 1 h) | negative membrane potential at which regions of decreased slope already appear (I-V plot) ([2]; 1 M KCl, upon peptide incubation) | reduction of depolarized mitochondria (NSC34-SOD1G93A cells; NSC34-SOD1G93A expressing peptide, n = 3)
FAQLTIALAYY [ScNHK1, scramble peptide (…) synthetized and used as control, reference compound] | No similar effect | No influence on the electrophysiological activity | no difference was found | not | – | – | – | –
IAAQLLAYYFT [NHK1, peptide corresponding to residues 2–12 (N-terminal region) of human HK1 protein (…)] | – | induced several fast and reversible events of VDAC1 low-conducting closed states | strongly affected the channel voltage-dependence of VDAC1 | – | 40% | 80% | −10 mV | 20%
